Measured values as given in US12491178B2, “Stable pharmaceutical compositions of edaravone” (Slayback Pharma LLC, priority 2023, dated 2025).

How the values were obtained:
[1] = Solubility of edaravone in solubility enhancing agents; assay type: physicochemical
From the text: The table below, illustrates the best possible solubilizing agents that are utilized in the present invention.

[2] = cited from earlier work

- Solubility ([1]; in Alcohol): 52.27 mg/gm
- Solubility ([1]; in CCMG 400 LQ (Mixture of caprylocaproyl polyoxylglycerides)): 14.36 mg/gm
- Solubility ([1]; in Capryol 90 (Propylene Glycol Monocaprylate)): 15.8 mg/gm
- Solubility ([1]; in Capryol 90 + Ethanol (50:50)): 65.0 mg/gm
- Solubility ([1]; in Castor Oil): 7.9 mg/gm
- Solubility ([1]; in Castor oil + Ethanol (50:50)): 72.2 mg/gm
- Solubility ([1]; in Cotton seed oil): 2.1 mg/gm
- Solubility ([1]; in Imwitor 988 (Ester of caprylic acid and glycerol)): 13.59 mg/gm
- Solubility ([1]; in Kollisolv MCT 70): 8.61 mg/gm
- Solubility ([1]; in Labrafil M 1944 (Oleoyl polyoxyl-6 glycerides)): 6.9 mg/gm
- Solubility ([1]; in Labrafil M 2125 (Linoleoyl Polyoxyl-6 glycerides)): 9.10 mg/gm
- Solubility ([1]; in Labrasol ALF (Caprylocaproyl Polyoxyl-8 glycerides), edaravone dissolved per gram of agent): 25.1 mg/gm
- Solubility ([1]; in Labrasol ALF + Ethanol (50:50)): 78.8 mg/gm
- Solubility ([1]; in Lauroglycol 90 (Propylene glycol monolaurate)): 8.1 mg/gm
- Solubility ([1]; in Miglyol 812 (Triester of caprylic and capric acid)): 11.26 mg/gm
- Solubility ([1]; in PEG 300 (polyethylene glycol)): 26.4 mg/gm
- Solubility ([1]; in PEG 300 + Ethanol (50:50)): 66.3 mg/gm
- Solubility ([1]; in Peanut oil): 1.7 mg/gm
- Solubility ([1]; in Peppermint Oil): 37.6 mg/gm
- Solubility ([1]; in Peppermint Oil + Ethanol (50:50)): 72.8 mg/gm
- Solubility ([1]; in Polysorbate 20): 17.7 mg/gm
Compound: CC1=NN(c2ccccc2)C(=O)C1 [edaravone, 3-methy-1-phenyl-2-pyrazolin-5-one]
- oral bioavailability (Fabs) [2]: 5.23%
